Peptide text beside a SMILES is read from it.

Regarding `COC(=O)Cc1cccc(OCc2ccccc2)c1`, the melting point is 34 to 37 °C.
The value for `OCCCN1CCNCC1` was 50 °C; that for `Cc1ccc(-c2ccc(C=CC(=O)c3ccco3)o2)cc1` was 110 to 111 °C; that for `Cc1cc(C)c(N)c(Br)c1` was 44 °C.
The value for `OC1C2CC3CC(C2)CC1C3` (stereo not drawn) was 301 °C; that for `C/C(=N\NC(N)=O)C(=O)C(C)Cc1ccccc1` (stereo not drawn) was 112 °C.
For the molecule `O=C1c2ccccc2CC2C=CC=CC12` (stereo not drawn), the melting point amounted to 152 °C.
The value for `COc1ccc2c(c1)OC(c1ccccc1)CC2=O` (stereo not drawn) was 88 °C; that for `O=Cc1c[nH]c2cc(Br)ccc12` was 202 to 203 °C; that for `O=[N+]([O-])c1ccc(Br)c(C(F)(F)F)c1` was 43 °C.
`CCCCCCCCCCOC(C)=O`: the melting point is -15 °C.
Next, `COc1cc(OCc2ccccc2)ccc1C=O`: 96 °C.
The value for `CCN(CC)CCn1cnc2c1c(=O)n(C)c(=O)n2C` was 75 °C; that for `CCOC(=O)c1nn(-c2ccc(C)cc2)c(C)c1C(=O)c1noc(-c2ccc(Br)cc2)c1S(=O)(=O)c1ccccc1` was 170 °C.
The value for `N#CCSc1ccc(F)cc1` was 34 °C.
In turn, `O=C(C(=O)c1ccc2c3c(cccc13)CC2)c1ccccc1` had a melting point of 148 °C.
Next, `C#CCCCCCC#C`: -21 °C; `c1ccc2c(c1)cc1c3ccccc3c3cccc4ccc2c1c43`: 234 °C.
The value for `C=Cc1ccccc1` was -31 °C.
`CC(C)(C)C=C=C=C=CC(C)(C)C`: the melting point came out at 135 °C.
Next, `CCC(=O)c1ccc(C(F)(F)F)c(F)c1`: 37 °C; `FC(F)C(F)F`: -89 °C; `CCCCCCCCCCCC(=O)NC`: 68 °C.
`O=C(CCl)Nc1ccc(F)cc1F`: the melting point fell in the range of 79 to 81 °C.
`NCc1ccc(Cl)nc1`: the melting point came to 30 °C.
The value for `O=Cc1cc([N+](=O)[O-])cc([N+](=O)[O-])c1O` was 72.5 °C; that for `CCOC(=O)C=CC(=O)O` was 70 °C; that for `Cc1nn(-c2ccccc2)nc1C(=O)NNC(=N)C(Cl)(Cl)Cl` was 197 to 198 °C.
Next, `N[C@@H](Cc1ccccc1)C(=O)O`: 270 to 275 °C; `O=C(O)c1c(Cl)c(Cl)c(Cl)c(Cl)c1C(=O)Nc1cccc(Cl)c1Cl`: 198 °C.
`O=C(C(=O)c1ccc2ccccc2c1)c1ccccc1` came in with a melting point of 87 °C.
`O=C(Oc1c(F)c(F)c(F)c(F)c1F)C1CCN(c2ncnc3ccsc23)CC1`: the melting point was in the range of 99 to 104 °C.
The value for `Cn1c(=O)c(C2=Nc3ccccc3SC(c3cccs3)C2)c(O)c2ccccc21` (stereo not drawn) was 224 °C; that for `CCCCCC(=O)CC(C)=O` was -18 °C.
In turn, `CC(C)N(C(=O)SCC(Cl)=CCl)C(C)C` displayed a melting point of 25 °C.
The value for `ON=C1CCCc2c1nc(-c1ccccc1)n2O` was 270 to 272 °C; that for `COc1cc(N)c(C(c2ccc(C)o2)c2ccc(C)o2)cc1OC` was 79 °C.
Next, `O=C(Cl)c1cnccn1`: 150 °C; `CN(C)c1ccc(N=Nc2ccc(N)cc2)cc1`: 189 °C.
The value for `Cc1nc(-c2cnccn2)sc1C(=O)O` was 237 to 238 °C; that for `Nc1ccccc1Cl` was -3 °C.
Molecule `NC(=S)c1c[nH]cn1` registered a melting point of 205 to 207 °C.
With `COC(OC)c1ccc(C#N)c(S)n1`, the melting point was 137 to 139 °C.
`O=c1c(Cl)c(Cl)cnn1-c1ccccc1` came in with a melting point of 163 to 164 °C.
The value for `O=CC(F)(F)C(F)(F)C(F)(F)C(F)(F)C(F)(F)C(F)(F)C(F)(F)C(F)(F)C=O` was 68 to 70.5 °C.
Consider `COc1cc2c(cc1OC)C1CC(=O)C(CC(C)C)CN1CC2` (stereo not drawn), for which the melting point was 128 °C.
Next, `N#Cc1ccc(N2CCCNCC2)nc1`: 63 to 65 °C.
The value for `CCOC(=O)c1cn[nH]c1NC(=O)Nc1ccc(Cl)cc1` was 260 to 261 °C.
Molecule `COc1cc(CCl)c(OC)cc1CCl` gave a melting point of 164 to 165 °C.
The value for `N#Cc1cc([N+](=O)[O-])cc(Cl)c1N` was 180 to 185 °C; that for `C=CCc1cc(OC)c(O)c(C(=O)NCCO)c1` was 95 °C.
In turn, `NC(CC1CCCCC1)C(=O)O` (stereo not drawn) showed a melting point of 322 to 328 °C.
The value for `C[Si](C)(C)O[Si](C)(C)O[Si](C)(C)C` was -80 °C; that for `Cc1nc2cc3ccccc3cc2o1` was 87 °C.
Consider `Cc1cccc2sc3nncn3c12`, for which the melting point was 187 °C.
The value for `CSc1nc(=O)n(C2CCCCC2)c2c1CCC2` was 192 to 194 °C; that for `COC(=O)c1scc(C#N)c1N` was 149 to 150 °C; that for `O=C(O)C1CCC1` was -2 °C.
In the case of `O=Cc1ccc(OCc2ccccc2)c(Cl)c1`, the melting point fell in the range of 93 to 94 °C.
`CCOCCOC(=O)C(C)Oc1ccc(Oc2ncc(C(F)(F)F)cc2Cl)cc1` (stereo not drawn): the melting point amounted to 60 °C.
Next, `C#CC(C)O` (stereo not drawn): -3 °C; `S=C=Nc1ccc(N2CCOCC2)nc1`: 121 to 122 °C; `CCOC(=O)C(=O)C=CN(C)C`: 38 °C.
The value for `CC(Cc1oc2c(c3c(c4ccccc42)O[C@@H]2CC(=O)O[C@H]32)c(=O)c1[Si](C)(C)C)O[Si](C)(C)C(C)(C)C` (stereo partly drawn) was 188 to 190 °C; that for `CCOC(=O)c1c(C)cc(=O)oc1C` was 17 to 18 °C.
`COc1ccc(OC)c(C=CC(=O)n2cnc3c(N)ncnc32)c1` showed a melting point of 260 to 262 °C.
`NS(=O)(=O)c1ccc(Br)s1`: the melting point was 139 to 141 °C.
Next, `CCCCOC(=O)COc1cc(Cl)c(Cl)cc1Cl`: 28.5 °C.
`Nc1cc(C(=O)O)cc([N+](=O)[O-])c1` registered a melting point of 216 °C.
For `CCOC(=O)c1c(SC)nc2ccc(Cl)cc2c1Cl`, the melting point lay in the range of 134 to 137 °C.
`NCC(=O)N[C@@H](CCC(=O)O)C(=O)O` (H-Gly-Glu-OH) returned a melting point of 155 to 158 °C.
Next, `CN(C)C(CSS(=O)(=O)c1ccccc1)CSS(=O)(=O)c1ccccc1`: 83.5 °C; `CCCCC(O)C(=O)O` (stereo not drawn): 61 °C.
In turn, `O=C1C=C(/C=C/c2ccccc2)CCC1` had a melting point of 65 to 67 °C.
For the molecule `CCCCCCCCCCCC=CCCCCC(=O)O`, the melting point came out at 29.8 °C.
The molecule `Nc1ccc(Cc2ccccc2)cc1` had a melting point of 37 °C.
The value for `CCNc1nsc2ccccc12` was 78 °C; that for `Cc1cc(C2(c3cc(C)c(O)c(CN(CC(=O)O)CC(=O)O)c3)OC(=O)c3ccccc32)cc(CN(CC(=O)O)CC(=O)O)c1O` was 181 °C.
The molecule `O=C(O)COc1ccc(C(=O)c2cccs2)c(Cl)c1Cl` gave a melting point of 149 °C.
The value for `C1=CCC(c2ccccc2)(c2ccccc2)C=C1` was 57 °C; that for `CCCCI` was -103 °C; that for `CC(C)c1cc(Cl)nc(N)n1` was 100 °C.
In the case of `OC(CNc1ccccn1)c1ccccc1` (stereo not drawn), the melting point was found to be 83.5 °C.
In the case of `CC(CCC(/C=N/NC(N)=O)C(C)C)C(=O)O` (stereo not drawn), the melting point came to 152 °C.
`ClCc1nnc(C2CC2)s1` registered a melting point of 80 to 84 °C.
Next, `NC(C(=O)O)(c1ccccc1)c1ccccc1`: 244 to 247 °C.
Next, `O=S(=O)(Cl)c1ccc(-c2ccccn2)s1`: 87 to 89 °C; `CCCCCCCCCOC(C)=O`: -26 °C.
Next, `Nc1cnccc1C(=O)O`: 287 to 291 °C; `Cc1c(C#N)c2ccccc2n1C`: 105 °C; `O=C(O)c1cccnc1C(=O)O`: 228 °C.
For the molecule `Brc1ccc(-c2cnco2)cc1`, the melting point lay within 78 to 79 °C.
The value for `Nc1nnc(Br)s1` was 168 to 169 °C; that for `Cc1cc(N(C)C)nc(Cl)n1` was 87 °C.
The value for `COc1ccc(-c2cc(C(F)(F)F)nc(N)n2)cc1` was 191 to 194 °C.
As to `CC(=O)NC1Cc2ccccc21` (stereo not drawn), the melting point stood at 123 °C.
Take `CS(=O)(=O)c1ccc(-c2cn3ccccc3n2)cc1`: the melting point is 242 °C.
Next, `COc1cc(C)nc(N)n1`: 161 °C; `COC(=O)CCc1c([N+](=O)[O-])cc2c(c1[N+](=O)[O-])NC(=O)CC2`: 166 °C.
The molecule `CCC(O)C(CC(C)N(C)C)(c1ccccc1)c1ccccc1` (stereo not drawn) had a melting point of 127 °C.
In turn, `COC(=O)c1cc2cc(N)ccc2s1` had a melting point of 178 to 179 °C.
Next, `Cc1c(C2(c3cc(Br)c(O)c(Br)c3C)OS(=O)(=O)c3ccccc32)cc(Br)c(O)c1Br`: 222 °C; `O=C(O)C(O)(c1ccccc1Cl)c1ccccc1Cl`: 162 °C; `O=C(Br)c1ccccc1`: -24 °C.
Turning to `CC1(CO)CN(c2ccccc2)NC1=O` (stereo not drawn), the melting point was found to be 125 °C.
For `Oc1ccc(O)c(C=NCCN=Cc2cc(O)ccc2O)c1`, the melting point is 125 to 127 °C.
Next, `Cc1ccc(C)c(N/N=C(/C#N)c2nc3ccccc3c(=O)[nH]2)c1`: 205 °C; `CCS(=O)(=O)c1ccc(F)cc1`: 41 °C; `O=C(NCC[C@H](O)C(=O)O)OCc1ccccc1`: 72 to 78 °C.
Next, `CCOC(=O)/C(=N\Nc1ccc(C)cc1C)C(=O)C(F)(F)F`: 139 °C; `O=C1c2ccc([N+](=O)[O-])cc2C(=O)N1CCCBr`: 104 to 107 °C; `Clc1ncnc2sc3c(c12)CCCC3`: 96 °C.
`CC(Oc1ccc(OC(F)(F)F)cc1)C(=O)O` (stereo not drawn) gave a melting point of 76 to 78 °C.

Values taken from a melting point compilation (Tetko et al.).
